Patent US5723475A, “Arylpiperidine and arylpiperazine derivatives and medicament containing the same” (Suntory Limited, priority 1995, dated 1998)

What was measured:
Sodium Channel = test: Veratridine-induced Sodium Channel Activity Inhibitory Effect (suppression of veratridine-induced depolarization in synaptosomes, Rhodamine 6G); assay type: biochemical, Wistar rats; conditions: compound 0.1 μM; rat brain synaptosomes
Protocol: Veratridine-induced Sodium Channel Activity Inhibitory Effect
The membrane potential of the synaptosomes prepared from the brain membrane of Wistar rats (male, 10 to 12 weeks old) was measured by the method of Aiuchi et al. [T. Aiuchi et al: Biochimi. Biophys. Acta.

dopamine D2 receptors = conditions: due to its action of blocking dopamine D2 receptors; cited from earlier work
Dopamine D2 receptor = target: T1, Dopamine D2 receptor (Rattus norvegicus, UniProt P61169); test: Dopamine D2 Receptor Blocking Effect ([3H] raclopride binding, striatum membrane fraction); design: species or system Wister male rats; conditions: 1.0 nM [3H] raclopride, 25° C., one hour
T1 construct: membrane fraction prepared from the striatum of Wister male rats; from tissue; host or cells: striatum of male Wistar rats (6 weeks old), membrane fraction
T1 sequence (P61169 whole entry): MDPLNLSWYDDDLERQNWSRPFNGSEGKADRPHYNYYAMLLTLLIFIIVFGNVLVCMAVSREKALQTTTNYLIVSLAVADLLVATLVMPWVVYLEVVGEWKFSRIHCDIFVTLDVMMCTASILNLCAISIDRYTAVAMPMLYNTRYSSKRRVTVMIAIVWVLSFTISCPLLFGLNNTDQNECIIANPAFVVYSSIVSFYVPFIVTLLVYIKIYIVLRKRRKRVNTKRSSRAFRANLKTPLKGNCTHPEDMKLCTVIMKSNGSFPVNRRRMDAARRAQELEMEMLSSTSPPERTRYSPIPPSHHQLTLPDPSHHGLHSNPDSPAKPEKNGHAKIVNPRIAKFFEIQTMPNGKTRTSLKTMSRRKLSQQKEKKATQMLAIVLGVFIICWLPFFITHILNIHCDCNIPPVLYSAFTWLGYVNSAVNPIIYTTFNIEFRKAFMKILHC
Protocol: Dopamine D2 Receptor Blocking Effect
57 μl of the membrane fraction prepared from the striatum of Wister male rats (6 weeks old) was incubated in a buffer at 25° C. for one hour along with the compound and 1.0 nM [^3 H) raclopride. A GF/C glass filter (0.1% polyethylene imine treatment) was used for separation of B/F, then the radioactivity was measured by a beta plate and the effect of the compound was evaluated.

T-type Ca^2+ channel = test: T-Type Calcium Channel Inhibitory Effect (whole-cell patch clamp, hippocampal CA1 pyramidal cells); assay type: cell-based, Wistar rats; conditions: suppression of peak current after one minute of application; rat hippocampal CA1 pyramidal cells; read-out: T-type Ca^Z+ channel inhibitory effect IC50
Protocol: T-Type Calcium Channel Inhibitory Effect
The hippocampal CA1 pyramidal cells were isolated from Wistar rats (male/female, 1 week old) in accordance with the method of Takahashi et al. [K. Takahashi et al.; J. Pharmacol. Exp. Ther., 256, 169 (1991)] and the T-type calcium current under conditions of a fixed membrane potential was measured using the whole-cell configuration of the pach clamp technique. The effects of the compounds were evaluated from the rate of suppression of the peak current after one minute of application using the concentration clamp method.

[1] = acute toxicity, death rate up to 24 hours after intravenous injection; conditions: mouse, in vivo, ddY mice (male, 6 weeks old), read-out: 50% lethal dosage LD50 of acute toxicity
Source text: The compounds of the present invention are low in toxicity.

SMILES	Anti-veratridine effect (inhibiting rate %) (Sodium Channel) [%]	other results
Cc1cccc(C)c1NC(=O)CCCN1CCC(c2ccc(Oc3ccccc3)cc2)CC1 [Compound 47, 2,6-dimethyl-1-[4-(4-(4-phenoxyphenyl)piperidin-1-yl)butyrylamino]benzene]	17.3	
O=C(CCCN1CCC(c2ccc(Cc3ccc(F)cc3)cc2)CC1)Nc1ccccc1Cc1ccccc1 [Compound 35, 2-benzyl-1-[4-(4-(4-(4-fluorophenyl)methylphenyl)piperidin-1-yl)butyrylamino]benzene]	40.6	
Cc1cccc(Cc2ccccc2)c1NC(=O)CCCN1CCN(c2ccc(Cc3ccc(F)cc3)cc2)CC1 [Compound 42, 2-benzyl-1-[4-(4-(4-(4-fluorophenyl)methylphenyl)piperazin-1-yl)butyrylamino]-6-methylbenzene]	16.6	
O=C(CCCN1CCC(c2ccc(Oc3ccccc3)cc2)CC1)Nc1ccccc1Cc1ccccc1 [Compound 33, 2-benzyl-1-[4-(4-(4-phenoxyphenyl)piperidin-1-yl)butyrylamino]benzene]	37.5	
O=C(CN1CCC(c2ccc(Oc3ccccc3)cc2)CC1)N[C@@H]1C[C@H]1c1ccccc1 (relative stereo) [Compound 56, N-(trans-2-phenyl-1-cyclopropyl)-4-(4-phenoxyphenyl)-1-piperidinacetamide]	38.4	
O=C(CCCCCN1CCN(c2ccc(Cc3ccc(F)cc3)cc2)CC1)Nc1ccccc1Cc1ccccc1 [Compound 38, 2-benzyl-1-[6-(4-(4-(4-fluorophenyl)methylphenyl)piperazin-1-yl)hexanoylamino]benzene]	56.6	
Fc1ccc(C(c2ccc(F)cc2)N2CCN(C/C=C/c3ccccc3)CC2)cc1 [Flunarizine]		side effect (dopamine D2 receptors): onset of symptoms of Parkinson's disease
O=C(CCCN1CC=C(c2ccc(Oc3ccccc3)cc2)CC1)NC1CCCOc2ccccc21 (stereo not drawn) [Compound 29, 5-[4-(4-(4-phenoxyphenyl)-1,2,3,6-tetrahydropyridine-1-yl)butyrylamino]-2,3,4,5-tetrahydro-1-benzoxepine]	27.9	
O=C(CCCCCN1CCC(c2ccc(Oc3ccccc3)cc2)CC1)Nc1ccccc1Cc1ccccc1 [Compound 37, 2-benzyl-1-[6-(4-(4-phenoxyphenyl)piperidin-1-yl)hexanoylamino]benzene]	62	IC50 (Dopamine D2 receptor): > 1000 nM
O=C(CCCN1CC=C(c2ccc(Oc3ccccc3)cc2)CC1)Nc1ccccc1Cc1ccccc1 [Compound 32, 2-benzyl-1-[4-(4-(4-phenoxyphenyl)-1,2,3,6-tetrahydropyridin-1-yl)butyrylamino]benzene]	35.7	IC50 (Dopamine D2 receptor): > 1000 nM
O=C(NCCN1CCC(c2ccc(Oc3ccccc3)cc2)CC1)C1(c2ccccc2)CC1 [Compound 63, 1-[2-(1-phenyl-1-cyclopropylcarboxyamino)ethyl]-4-(4-phenoxyphenyl) piperidine]	36.2	
O=C(CCCN1CCN(c2ccc(Cc3ccc(F)cc3)cc2)CC1)Nc1ccccc1Cc1ccccc1 [Compound 34, 2-benzyl-1-[4-(4-(4-(4-fluorophenyl)methylphenyl)piperazin-1-yl)butyrylamino]benzene]	50.2	IC50 (Dopamine D2 receptor): 7000 nM; IC50 (T-type Ca^2+ channel): 10000 nM
Cc1cccc(Cc2ccccc2)c1NC(=O)CCCN1CCC(c2ccc(Oc3ccccc3)cc2)CC1 [Compound 41, 2-benzyl-1-[4-(4-(4-phenoxyphenyl)piperidin-1-yl)butyrylamino]-6-methylbenzene]	30.4	
O=C(CCCN1CCC(c2ccc(Oc3ccccc3)cc2)CC1)NC1CCCOc2ccccc21 (stereo not drawn) [Compound 30, 5-[4-(4-(4-phenoxyphenyl)piperidin-1-yl)butyrylamino]-2,3,4,5-5 tetrahydro-1-benzoxepine]	21.4	
Cc1cc(C)c(NC(=O)CCCN2CCC(c3ccc(Cc4ccc(F)cc4)cc3)CC2)c(C)c1 [Compound 49, 2,4,6-trimethyl-1-[4-(4-(4-(4-fluorophenyl)methylphenyl)piperidine-1-yl)butyrylamino]benzene]	17	
Cc1cccc(Cc2ccccc2)c1NC(=O)CN1CCC(c2ccc(Oc3ccccc3)cc2)CC1 [Compound 39, 2-benzyl-1-[2-(4-(4-phenoxyphenyl)piperidin-1-yl)acetylamino]-6-methylbenzene]	16.6	
O=C(CN1CCC(c2ccc(Cc3ccc(F)cc3)cc2)CC1)N[C@@H]1C[C@H]1c1ccccc1 (relative stereo) [Compound 57, N-(trans-2-phenyl-1-cyclopropyl)-4-[4-(4-fluorophenyl)methylphenyl]-1-piperidinacetamide]	32.8	IC50 (T-type Ca^2+ channel): 1500 nM
O=C(CCCN1CCN(c2ccc(Cc3ccc(F)cc3)cc2)CC1)N1CCCOc2ccccc21 [Compound 53, 5-[4-(4-(4-(4-fluorophenyl)methylphenyl)piperazin-1-yl)butyryl]-2,3,4,5-tetrahydro-1,5-benzoxazepine]	33.8	IC50 (Dopamine D2 receptor): 1260 nM; LD50 at 24 h [1]: 46.5 mg/kg; IC50 (T-type Ca^2+ channel): 2800 nM
O=C(CN1CCC(c2ccc(Cc3ccc(F)cc3)cc2)CC1)Nc1ccccc1 [Compound 60, N-phenyl-4-[4-(4-fluorophenyl)methylphenyl]-1-piperidinacetamide]	33.9	
O=C(NCCN1CCC(c2ccc(Oc3ccccc3)cc2)CC1)c1ccccc1 [Compound 62, 1-(2-benzoylaminoethyl)-4-(4-phenoxyphenyl)piperidine]	36	
O=C(CN1CCC(c2ccc(Oc3ccccc3)cc2)CC1)Nc1ccccc1 [Compound 59, N-phenyl-4-(4-phenoxyphenyl)-1-piperidinacetamide]	32.9	
C=C(c1ccccc1)N(C)C(=O)CN1CCC(c2ccc(Oc3ccccc3)cc2)CC1 [Compound 64, N-methyl-N-(1-phenylvinyl)-4-(4-phenoxyphenyl)-1-piperidinacetamide]	31.5	
O=C(CCCCCN1CC=C(c2ccc(Oc3ccccc3)cc2)CC1)Nc1ccccc1Cc1ccccc1 [Compound 36, 2-benzyl-1-[6-(4-(4-phenoxyphenyl)-1,2,3,6-tetrahydropyridine-1-yl)hexanoylamino]benzene]	55.1	IC50 (Dopamine D2 receptor): > 1000 nM
O=C(CCCN1CCC(c2ccc(Cc3ccc(F)cc3)cc2)CC1)N1CCCOc2ccccc21 [Compound 54, 5-[4-(4-(4-(4-fluorophenyl)methylphenyl)piperidin-1-yl)butyryl]-2,3,4,5-tetrahydro-1,5-benzoxazepine]	29.4	
